{"source": "patent US11229618B2", "about": "(Amarin Pharmaceuticals Ireland Limited, priority 2012, dated 2022)", "experiment": "AAMI 6-week study: essential fatty acid parameters in plasma (gas chromatography)", "assay_type": "in vivo, human", "settings": "for AA Plasma Mean change from Baseline / DHA Plasma Mean change from Baseline / AA Plasma 1 or 2 g versus 4 g LS Mean / DHA Plasma 1 or 2 g versus 4 g LS Mean: AAMI; for AA Plasma Mean change from Baseline / DHA Plasma Mean change from Baseline: mean (SD); for DGLA 1 or 2 g versus 4 g, LS Mean / DPAn-3 1 or 2 g versus 4 g, LS Mean / EPA/AA 1 or 2 g versus 4 g, LS Mean / DGLA Mean change from Baseline, Mean (SD) / DPAn-3 Mean change from Baseline, Mean (SD) / EPA/AA Mean change from Baseline, Mean (SD) / DGLA Baseline Mean (SD) / DPAn-3 Baseline Mean (SD) / EPA/AA Baseline Mean (SD): plasma; for DPAn-3 1 or 2 g versus 4 g, LS Mean / EPA/AA 1 or 2 g versus 4 g, LS Mean: p-value <0.001", "protocol": "A single-center, 6-week, double-blind, randomizes, parallel-group, placebo-controlled, dose-ranging pilot study was performed to evaluate the efficacy, tolerability, and safety of >96% ethyl-EPA in subjects with subjective and objective memory impairment according to generally accepted criteria for Age-Associated Memory Impairment (“AAMI”). The primary objective of the study was to determine the effect of >96% ethyl-EPA 1 g, 2 g, and 4 g daily, compared to placebo, on cognitive performance in subjects with AAMI.\nNinety-four subjects were randomized into one of six groups: 1 g E-EPA daily (n=23), 2 g E-EPA daily (n=24), 4 g E-EPA daily (n=24), 1 g placebo daily (n=7), 2 g placebo daily (n=8), and 4 g placebo daily (n=8). E-EPA was provided as 500 mg soft gel capsules containing>96% E-EPA and 0.2% dl-α-tocopherol as an antioxidant. Placebo capsules contained 467 mg of liquid paraffin and 0.2% dl-α-tocopherol. Ninety-one subjects completed the study. Two subjects in the 2 g E-EPA group and one subject in the 2 g placebo group discontinued the study.\nBlood samples (10 mL) were collected at Visit 1 (screening) and at Visits 4, 5 and 6. Analysis was performed by MSR Lipid Analysis, Scottish Crop Research Institute, Dundee, UK. The screening sample acted as baseline for the EFA measurements. Lipid was extracted from plasma, serum and RBC suspensions and converted into fatty acid methyl esters which were analyzed by gas chromatography to give fatty acid profiles as micrograms fatty acid per gram of sample (μgFA/g) and normalized area percent.\nRBC and plasma EFA data were collected at baseline, Day 14, 28 and 42 and summarized by visit for each treatment group. Change from baseline and percent change from baseline were also summarized. ANCOVA comparison of ethyl-EPA dose groups and ethyl-EPA versus placebo was performed.", "data": [{"compound": "CC/C=C\\C/C=C\\C/C=C\\C/C=C\\C/C=C\\CCCC(=O)OCC", "note": "[IPE, all-cis eicosa-5,8,11,14,17-pentaenoic acid ethyl ester]", "values": [{"measurement": "AA Plasma Mean change from Baseline", "setting": "1 g daily, Day 14", "result": "−9.7 (22.20) μg/g"}, {"measurement": "DHA Plasma Mean change from Baseline", "setting": "1 g daily, Day 14", "result": "−6.4 (13.30) μg/g"}, {"measurement": "AA Plasma Mean change from Baseline", "setting": "1 g daily, Day 28", "result": "−11.3 (28.13) μg/g"}, {"measurement": "DHA Plasma Mean change from Baseline", "setting": "1 g daily, Day 28", "result": "−6.6 (15.53) μg/g"}, {"measurement": "AA Plasma Mean change from Baseline", "setting": "1 g daily, Day 42", "result": "−8.7 (31.35) μg/g"}, {"measurement": "DHA Plasma Mean change from Baseline", "setting": "1 g daily, Day 42", "result": "−5.4 (18.17) μg/g"}, {"measurement": "AA Plasma 1 or 2 g versus 4 g LS Mean", "setting": "1 g versus 4 g", "result": 4.2, "unit": "µg/g"}, {"measurement": "DHA Plasma 1 or 2 g versus 4 g LS Mean", "setting": "1 g versus 4 g", "result": -0.8, "unit": "µg/g"}, {"measurement": "AA Plasma Mean change from Baseline", "setting": "2 g daily, Day 14", "result": "−13.9 (22.13) μg/g"}, {"measurement": "DHA Plasma Mean change from Baseline", "setting": "2 g daily, Day 14", "result": "−5.4 (14.29) μg/g"}, {"measurement": "AA Plasma Mean change from Baseline", "setting": "2 g daily, Day 28", "result": "21.6 (28.32) μg/g"}, {"measurement": "DHA Plasma Mean change from Baseline", "setting": "2 g daily, Day 28", "result": "−8.1 (15.82) μg/g"}, {"measurement": "AA Plasma Mean change from Baseline", "setting": "2 g daily, Day 42", "result": "−27.3 (26.76) μg/g"}, {"measurement": "DHA Plasma Mean change from Baseline", "setting": "2 g daily, Day 42", "result": "−6.0 (16.69) μg/g"}, {"measurement": "AA Plasma 1 or 2 g versus 4 g LS Mean", "setting": "2 g versus 4 g", "result": 15.6, "unit": "µg/g"}, {"measurement": "DHA Plasma 1 or 2 g versus 4 g LS Mean", "setting": "2 g versus 4 g", "result": 1.5, "unit": "µg/g"}, {"measurement": "AA Plasma Mean change from Baseline", "setting": "4 g daily, Day 14", "result": "−27.2 (28.89) μg/g"}, {"measurement": "DHA Plasma Mean change from Baseline", "setting": "4 g daily, Day 14", "result": "−10.3 (13.35) μg/g"}, {"measurement": "AA Plasma Mean change from Baseline", "setting": "4 g daily, Day 28", "result": "−43.7 (32.24) μg/g"}, {"measurement": "DHA Plasma Mean change from Baseline", "setting": "4 g daily, Day 28", "result": "−13.5 (14.10) μg/g"}, {"measurement": "AA Plasma Mean change from Baseline", "setting": "4 g daily, Day 42", "result": "−48.3 (22.20) μg/g"}, {"measurement": "DHA Plasma Mean change from Baseline", "setting": "4 g daily, Day 42", "result": "−13.8 (15.31) μg/g"}, {"measurement": "DGLA 1 or 2 g versus 4 g, LS Mean", "setting": "Ethyl-EPA 1 g versus 4 g, p-value 0.028", "result": 3.7, "unit": "µg/g"}, {"measurement": "DPAn-3 1 or 2 g versus 4 g, LS Mean", "setting": "Ethyl-EPA 1 g versus 4 g", "result": -15.1, "unit": "µg/g"}, {"measurement": "EPA/AA 1 or 2 g versus 4 g, LS Mean", "setting": "Ethyl-EPA 1 g versus 4 g", "result": "−0.66"}, {"measurement": "DGLA Mean change from Baseline, Mean (SD)", "setting": "Ethyl-EPA 1 g, Day 14", "result": "−10.4 (10.90) μg/g"}, {"measurement": "DPAn-3 Mean change from Baseline, Mean (SD)", "setting": "Ethyl-EPA 1 g, Day 14", "result": "7.5 (5.11) μg/g"}, {"measurement": "EPA/AA Mean change from Baseline, Mean (SD)", "setting": "Ethyl-EPA 1 g, Day 14", "result": "0.3 (0.4)"}, {"measurement": "DGLA Mean change from Baseline, Mean (SD)", "setting": "Ethyl-EPA 1 g, Day 28", "result": "−10.6 (10.23) μg/g"}, {"measurement": "DPAn-3 Mean change from Baseline, Mean (SD)", "setting": "Ethyl-EPA 1 g, Day 28", "result": "8.9 (5.62) μg/g"}, {"measurement": "EPA/AA Mean change from Baseline, Mean (SD)", "setting": "Ethyl-EPA 1 g, Day 28", "result": "0.3 (0.20)"}, {"measurement": "DGLA Mean change from Baseline, Mean (SD)", "setting": "Ethyl-EPA 1 g, Day 42", "result": "−9.4 (9.41) μg/g"}, {"measurement": "DPAn-3 Mean change from Baseline, Mean (SD)", "setting": "Ethyl-EPA 1 g, Day 42", "result": "11.3 (6.61) μg/g"}, {"measurement": "EPA/AA Mean change from Baseline, Mean (SD)", "setting": "Ethyl-EPA 1 g, Day 42", "result": "0.3 (0.24)"}, {"measurement": "DGLA Baseline Mean (SD)", "setting": "Ethyl-EPA 1 g", "result": "51.2 (15.01) μg/g"}, {"measurement": "DPAn-3 Baseline Mean (SD)", "setting": "Ethyl-EPA 1 g", "result": "21.1 (6.62) μg/g"}, {"measurement": "EPA/AA Baseline Mean (SD)", "setting": "Ethyl-EPA 1 g", "result": "0.2 (0.14)"}, {"measurement": "DGLA 1 or 2 g versus 4 g, LS Mean", "setting": "Ethyl-EPA 2 g versus 4 g, p-value 0.143", "result": 2.5, "unit": "µg/g"}, {"measurement": "DPAn-3 1 or 2 g versus 4 g, LS Mean", "setting": "Ethyl-EPA 2 g versus 4 g", "result": -9.5, "unit": "µg/g"}, {"measurement": "EPA/AA 1 or 2 g versus 4 g, LS Mean", "setting": "Ethyl-EPA 2 g versus 4 g", "result": "−0.41"}, {"measurement": "DGLA Mean change from Baseline, Mean (SD)", "setting": "Ethyl-EPA 2 g, Day 14", "result": "−14.1 (6.88) μg/g"}, {"measurement": "DPAn-3 Mean change from Baseline, Mean (SD)", "setting": "Ethyl-EPA 2 g, Day 14", "result": "17.4 (7.49) μg/g"}, {"measurement": "EPA/AA Mean change from Baseline, Mean (SD)", "setting": "Ethyl-EPA 2 g, Day 14", "result": "0.6 (0.23)"}, {"measurement": "DGLA Mean change from Baseline, Mean (SD)", "setting": "Ethyl-EPA 2 g, Day 28", "result": "−16.2 (9.88) μg/g"}, {"measurement": "DPAn-3 Mean change from Baseline, Mean (SD)", "setting": "Ethyl-EPA 2 g, Day 28", "result": "19.4 (8.48) μg/g"}, {"measurement": "EPA/AA Mean change from Baseline, Mean (SD)", "setting": "Ethyl-EPA 2 g, Day 28", "result": "0.8 (0.35)"}, {"measurement": "DPAn-3 Mean change from Baseline, Mean (SD)", "setting": "Ethyl-EPA 2 g, Day 42", "result": "19.3 (8.63) μg/g"}, {"measurement": "EPA/AA Mean change from Baseline, Mean (SD)", "setting": "Ethyl-EPA 2 g, Day 42", "result": "0.7 (0.29)"}, {"measurement": "DGLA Baseline Mean (SD)", "setting": "Ethyl-EPA 2 g", "result": "53.5 (14.12) μg/g"}, {"measurement": "DPAn-3 Baseline Mean (SD)", "setting": "Ethyl-EPA 2 g", "result": "19.7 (4.50) μg/g"}, {"measurement": "EPA/AA Baseline Mean (SD)", "setting": "Ethyl-EPA 2 g", "result": "0.2 (0.12)"}, {"measurement": "DGLA Mean change from Baseline, Mean (SD)", "setting": "Ethyl-EPA 4 g, Day 14", "result": "−22.9 (9.00) μg/g"}, {"measurement": "DPAn-3 Mean change from Baseline, Mean (SD)", "setting": "Ethyl-EPA 4 g, Day 14", "result": "24.5 (11.28) μg/g"}, {"measurement": "EPA/AA Mean change from Baseline, Mean (SD)", "setting": "Ethyl-EPA 4 g, Day 14", "result": "1.1 (0.28)"}, {"measurement": "DGLA Mean change from Baseline, Mean (SD)", "setting": "Ethyl-EPA 4 g, Day 28", "result": "−24.2 (10.73) μg/g"}, {"measurement": "DPAn-3 Mean change from Baseline, Mean (SD)", "setting": "Ethyl-EPA 4 g, Day 28", "result": "29.7 (13.23) μg/g"}, {"measurement": "EPA/AA Mean change from Baseline, Mean (SD)", "setting": "Ethyl-EPA 4 g, Day 28", "result": "1.3 (0.42)"}, {"measurement": "DGLA Mean change from Baseline, Mean (SD)", "setting": "Ethyl-EPA 4 g, Day 42", "result": "−22.5 (10.87) μg/g"}, {"measurement": "DPAn-3 Mean change from Baseline, Mean (SD)", "setting": "Ethyl-EPA 4 g, Day 42", "result": "32.0 (16.01) μg/g"}, {"measurement": "EPA/AA Mean change from Baseline, Mean (SD)", "setting": "Ethyl-EPA 4 g, Day 42", "result": "1.3 (0.45)"}, {"measurement": "DGLA Baseline Mean (SD)", "setting": "Ethyl-EPA 4 g", "result": "57.1 (14.73) μg/g"}, {"measurement": "DPAn-3 Baseline Mean (SD)", "setting": "Ethyl-EPA 4 g", "result": "21.7 (4.69) μg/g"}, {"measurement": "EPA/AA Baseline Mean (SD)", "setting": "Ethyl-EPA 4 g", "result": "0.2 (0.07)"}]}]}
